# Assay results: patent publication US12624017B2, “Salt form of isoquinolinone type compound as rock inhibitor and preparation method therefor” (GUANGZHOU OCUSUN OPHTHALMIC BIOTECHNOLOGY CO., LTD., priority 2020, dated 2026)
# Assay: Toxicokinetic test: active compound in plasma after 14 days of eye drops
# Assay type: in vivo, New Zealand white rabbits
# Conditions: for Concentration of active compound in plasma: 8.0 mg/ml eye drops, after 14 days of consecutive administration
# Procedure: The rate of production of active pharmaceutical ingredients in plasma and exposure amount of the active pharmaceutical ingredients were detected after 14 days.
# Male New Zealand white rabbits, aged 3 to 6 months, weighted 2.0 to 5.0 kg, purchased from Pizhou Oriental Breeding Co., Ltd.
# After 14 days of consecutive administration, blood samples were collected at 0 hours (before administration) and at 0.5, 1, 2, 4, 8 and 24 hours after administration in the group of compound of formula (I) (8.0 mg/ml) at 14-15 days. Approximately 0.8 mL of whole blood was collected from the ear artery or the hindlimb saphenous vein (or other suitable site) of animal subjected to the toxicokinetic test and placed in a labeled blood collection tube with dipotassium EDTA (K2EDTA) as an anticoagulant. Plasma was obtained by centrifugation at 3000 rpm and 2° C. to 8° C. for 10 min within 60 minutes after blood collection. All samples were quantitatively detected for the content of the administrated compound in the plasma of the experimental animal by a liquid chromatography-mass spectrometry coupling technology.
smiles,measurement,setting,value
Cc1ccc(C(=O)OCn2cc(C)c3c(S(=O)(=O)N4CC[C@H](N)C4)cccc3c2=O)c(C)c1 [Compound of formula (I)],Concentration of active compound in plasma,"Group 1, 0.00 h (before administration)",BQL
same,Concentration of active compound in plasma,"Group 1, 8.00 h",BQL
same,Concentration of active compound in plasma,"Group 1, 8.00 h, listed as compound of formula (I)",below the detection limit
same,Concentration of active compound in plasma,"Group 1, 24.0 h",BQL
same,Concentration of active compound in plasma,"Group 2, 0.00 h (before administration)",BQL
same,Concentration of active compound in plasma,"Group 2, 8.00 h",BQL
same,Concentration of active compound in plasma,"Group 2, 24.0 h",BQL
same,System safety (conclusion),"high dose of 8 mg/mL, from plasma metabolite concentration",high system safety
